These results are taken from US20250282799A1, “SUBSTITUTED PYRIDO[4,3-d]PYRIMIDINES AS KRAS MODULATORS” (Alterome Therapeutics, Inc., priority 2023, published 2025).

For this test, the system named is KRAS G12V dependent lung adenocarcinoma cell line, NCI-H441. Put plainly: Cellular pERK (Thr202/Tyr204) FRET/HTRF assay. Type of test: cell-based. Particulars: Homo sapiens, NCI-H441, cellular pERK (Thr202/Tyr204) HTRF, NCI-H441 cells. The procedure, abridged: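 Using a mix-and-read HTRF kit, phospho-ERK (Thr202/Tyr204) was detected in NCI-H441 lysates following 1 hr compound incubation at 37 °C, 5% CO2. Cells had been seeded overnight beforehand, and IC50 was derived by curve fitting.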
Background: In TR-FRET formats the signal depends on donor and acceptor labels being close together.

By IC50 is commonly meant the point on the concentration scale where inhibition reaches its midpoint.

Consider `[2H]C([2H])(Oc1nc(N2CCOC[C@H]3[C@H](F)[C@H]32)c2cnc(-c3cc(N)cc4ccc(F)c(CC)c34)c(F)c2n1)[C@@]12CCCN1C[C@H](F)C2` [Example 201, 5-ethyl-6-fluoro-4-(8-fluoro-4-((1S,7S,8S)-8-fluoro-5-oxa-2-azabicyclo[5.1.0]octan-2-yl)-2-(((2R,7aS)-2-fluorotetrahydro-1H-pyrrolizin-7a(5H)-yl)methoxy-d2)pyrido[4,3-d]pyrimidin-7-yl)naphthalen-2-amine], for which the IC50 was < 50 nM. Under `C#Cc1c(F)ccc2cc(N)cc(-c3ncc4c(N5CCOC[C@H]6[C@H](F)[C@H]65)nc(OC[C@]56CC7(CC7)CN5CCC65CC5)nc4c3F)c12` [Example 206, 4-(2-(((R)-Dihydro-5′H-dispiro[cyclopropane-1,1′-pyrrolizine-6′,1″-cyclopropan]-7a′(7′H)-yl)methoxy)-8-fluoro-4-((1S,7S,8S)-8-fluoro-5-oxa-2-azabicyclo[5.1.0]octan-2-yl)pyrido[4,3-d]pyrimidin-7-yl)-5-ethynyl-6-fluoronaphthalen-2-amine] stands < 50 nM; under `C#Cc1c(F)ccc2cc(N)cc(-c3ncc4c(N5CCOC[C@H]6[C@H](F)[C@H]65)nc(OC[C@@]56CC7(CC7)CN5CCC65CC5)nc4c3F)c12` [Example 207, 4-(2-(((S)-dihydro-5′H-dispiro[cyclopropane-1,1′-pyrrolizine-6′,1″- cyclopropan]-7a′(7′H)-yl)methoxy)-8-fluoro-4-((1S,7S,8S)-8-fluoro-5-oxa-2-azabicyclo[5.1.0]octan-2-yl)pyrido[4,3-d]pyrimidin-7-yl)-5-ethynyl-6-fluoronaphthalen-2-amine], < 50 nM.

For the compound `C#Cc1c(F)ccc2cc(N)cc(-c3ncc4c(N5CCOC[C@H]6[C@H](F)[C@H]65)nc(OC[C@@]56CCCN5C[C@H](F)C6)nc4c3F)c12` [Example 212, 5-Ethynyl-6-fluoro-4-(8-fluoro-4-((1S,7S,8S)-8-fluoro-5-oxa-2-azabicyclo[5.1.0]octan-2-yl)-2-(((2R,7aS)-2-fluorotetrahydro-1H-pyrrolizin-7a(5H)-yl)methoxy)pyrido[4,3-d]pyrimidin-7-yl)naphthalen-2-amine], the IC50 was < 50 nM. In the case of `[2H]C([2H])(Oc1nc(N2CCOC[C@H]3[C@H](F)[C@H]32)c2cnc(-c3cc(N)cc4ccc(F)c(C#C)c34)c(F)c2n1)C12CCCN1CCC2` [Example 213, 5-ethynyl-6-fluoro-4-(8-fluoro-4-((1S,7S,8S)-8-fluoro-5-oxa-2-azabicyclo[5.1.0]octan-2-yl)-2-((tetrahydro-1H-pyrrolizin-7a(5H)-yl)methoxy-d2)pyrido[4,3-d]pyrimidin-7-yl)naphthalen-2-amine], the IC50 is < 50 nM. With `[2H]C([2H])(Oc1nc(N2CCOC[C@H]3[C@H](F)[C@H]32)c2cnc(-c3cc(N)cc4ccc(F)c(C#C)c34)c(F)c2n1)[C@@]12CCCN1CC(F)(F)C2` [Example 220, 4-(2-(((S)-2,2-difluorotetrahydro-1H-pyrrolizin-7a(5H)-yl)methoxy-d2)-8-fluoro-4-((1S,7S,8S)-8-fluoro-5-oxa-2-azabicyclo[5.1.0]octan-2-yl)pyrido[4,3-d]pyrimidin-7-yl)-5-ethynyl-6-fluoronaphthalen-2-amine], the IC50 is < 50 nM. The same measure for `C=C1CN2CCC3(CC3)[C@@]2(COc2nc(N3CCOC[C@H]4[C@H](F)[C@H]43)c3cnc(-c4cc(N)c(F)c(C)c4C(F)(F)F)c(F)c3n2)C1` [Example 226, 2-fluoro-5-(8-fluoro-4-((1S,7S,8S)-8-fluoro-5-oxa-2-azabicyclo[5.1.0]octan-2-yl)-2-(((R)-6′-methylenetetrahydrospiro[cyclopropane-1,1′-pyrrolizin]-7a′(5′H)-yl)methoxy)pyrido[4,3-d]pyrimidin-7-yl)-3-methyl-4-(trifluoromethyl)aniline]: < 50 nM.

In the case of `[2H]C([2H])(F)Oc1c(F)ccc2cc(N)cc(-c3ncc4c(N5CCOC[C@H]6[C@H](F)[C@H]65)nc(OC[C@@]56CC7(CC7)CN5CCC65CC5)nc4c3F)c12` [Example 227, 4-(2-(((S)-dihydro-5′H-dispiro[cyclopropane-1,1′-pyrrolizine-6′,1″- cyclopropan]-7a′(7′H)-yl)methoxy)-8-fluoro-4-((1S,7S,8S)-8-fluoro-5-oxa-2-azabicyclo[5.1.0]octan-2-yl)pyrido[4,3-d]pyrimidin-7-yl)-6-fluoro-5-(fluoromethoxy-d2)naphthalen-2-amine], the IC50 was < 50 nM. Under `[2H]C([2H])(F)Oc1c(F)ccc2cc(N)cc(-c3ncc4c(N5CCOC[C@H]6[C@H](F)[C@H]65)nc(OC[C@]56CC7(CC7)CN5CCC65CC5)nc4c3F)c12` [Example 228, 4-(2-(((R)-dihydro-5′H-dispiro[cyclopropane-1,1′-pyrrolizine-6′,1″- cyclopropan]-7a′(7′H)-yl)methoxy)-8-fluoro-4-((1S,7S,8S)-8-fluoro-5-oxa-2-azabicyclo[5.1.0]octan-2-yl)pyrido[4,3-d]pyrimidin-7-yl)-6-fluoro-5-(fluoromethoxy-d2)naphthalen-2-amine] stands < 50 nM. The same measure for `[2H]C([2H])(Oc1nc(N2CCOC[C@H]3[C@H](F)[C@H]32)c2c(OC)nc(-c3cccc4ccc(F)c(C#C)c34)c(F)c2n1)[C@@]12CCCN1C[C@H](F)C2` [Example 235, (1S,7S,8S)-2-(7-(8-ethynyl-7-fluoronaphthalen-1-yl)-8-fluoro-2-(((2R,7aS)-2-fluorotetrahydro-1H-pyrrolizin-7a(5H)-yl)methoxy-d2)-5-methoxypyrido[4,3-d]pyrimidin-4-yl)-8-fluoro-5-oxa-2-azabicyclo[5.1.0]octane]: 500 to 10000 nM; for `[2H]C([2H])(Oc1nc(N2CCOC[C@@H]3[C@@H](F)[C@@H]32)c2c(OC)nc(-c3cccc4ccc(F)c(C#C)c34)c(F)c2n1)[C@@]12CCCN1C[C@H](F)C2` [Example 236, (1R,7R,8R)-2-(7-(8-ethynyl-7-fluoronaphthalen-1-yl)-8-fluoro-2-(((2R,7aS)-2-fluorotetrahydro-1H-pyrrolizin-7a(5H)-yl)methoxy-d2)-5-methoxypyrido[4,3-d]pyrimidin-4-yl)-8-fluoro-5-oxa-2-azabicyclo[5.1.0]octane]: 500 to 10000 nM; for `C#Cc1c(F)ccc2cc(N)cc(-c3ncc4c(N5CCOC[C@H]6[C@H](F)[C@H]65)nc(OC[C@@]56CCC(C)(C)N5C[C@H](F)C6)nc4c3F)c12` [Example 239, 5-ethynyl-6-fluoro-4-(8-fluoro-2-(((2R,7aS)-2-fluoro-5,5-dimethyltetrahydro-1H-pyrrolizin-7a(5H)-yl)methoxy)-4-((1S,7S,8S)-8-fluoro-5-oxa-2-azabicyclo[5.1.0]octan-2-yl)pyrido[4,3-d]pyrimidin-7-yl)naphthalen-2-amine]: < 50 nM.

`[2H]C([2H])(Oc1nc(N2CCOCC3C2C3(Cl)Cl)c2cnc(-c3cc(N)cc4ccc(F)c(C#C)c34)c(F)c2n1)[C@@]12CCCN1C[C@H](F)C2` (stereo partly drawn) [Example 240, 4-(4-(8,8-dichloro-5-oxa-2-azabicyclo[5.1.0]octan-2-yl)-8-fluoro-2-(((2R,7aS)-2-fluorotetrahydro-1H-pyrrolizin-7a(5H)-yl)methoxy-d2)pyrido[4,3-d]pyrimidin-7-yl)-5-ethynyl-6-fluoronaphthalen-2-amine]: the IC50 was in the range of 500 to 10000 nM. Under `[2H]C([2H])(Oc1nc(N2CCOC[C@H]3[C@H](F)[C@H]32)c2c(OC)nc(-c3cc(O)cc4ccc(F)c(C#C)c34)c(F)c2n1)[C@@]12CCCN1C[C@H](F)C2` [Example 241, 5-ethynyl-6-fluoro-4-(8-fluoro-4-((1S,7S,8S)-8-fluoro-5-oxa-2-azabicyclo[5.1.0]octan-2-yl)-2-(((2R,7aS)-2-fluorotetrahydro-1H-pyrrolizin-7a(5H)-yl)methoxy-d2)-5-methoxypyrido[4,3-d]pyrimidin-7-yl)naphthalen-2-ol] stands < 50 nM; under `C#Cc1c(F)ccc2cc(N)cc(-c3ncc4c(N5CCOC[C@H]6[C@H](F)[C@H]65)nc(OC[C@@]56C=C(C)CN5CCC65CC5)nc4c3F)c12` [Example 244, 5-ethynyl-6-fluoro-4-(8-fluoro-4-((1S,7S,8S)-8-fluoro-5-oxa-2-azabicyclo[5.1.0]octan-2-yl)-2-(((S)-6′-methyl-2′,3′-dihydrospiro[cyclopropane-1,1′-pyrrolizin]-7a′(5′H)-yl)methoxy)pyrido[4,3-d]pyrimidin-7-yl)naphthalen-2-amine], < 50 nM; under `C#Cc1c(F)ccc2cccc(-c3ncc4c(N5CCOC[C@H]6[C@H](F)[C@H]65)nc(OC[C@]56C[C@@H](F)CN5C[C@@H](CNC(C)=O)C6)nc4c3F)c12` [Example 245, N-(((2R,6R,7aS)-7a-(((7-(8-ethynyl-7-fluoronaphthalen-1-yl)-8-fluoro-4-((1S,7S,8S)-8-fluoro-5-oxa-2-azabicyclo[5.1.0]octan-2-yl)pyrido[4,3-d]pyrimidin-2-yl)oxy)methyl)-6-fluorohexahydro-1H-pyrrolizin-2-yl)methyl)acetamide], 50 to 500 nM. The same measure for `C#Cc1c(F)ccc2cccc(-c3ncc4c(N5CCOC[C@H]6[C@H](F)[C@H]65)nc(OC[C@]56C[C@@H](F)CN5C[C@@H](CN)C6)nc4c3F)c12` [Example 246, ((2R,6R,7aS)-7a-(((7-(8-ethynyl-7-fluoronaphthalen-1-yl)-8-fluoro-4-((1S,7S,8S)-8-fluoro-5-oxa-2-azabicyclo[5.1.0]octan-2-yl)pyrido[4,3-d]pyrimidin-2-yl)oxy)methyl)-6-fluorohexahydro-1H-pyrrolizin-2-yl)methanamine]: 500 to 10000 nM.
